Test results from PMC6687188, “Novel lactate dehydrogenase inhibitors with in vivo efficacy against Cryptosporidium parvum” (PLoS Pathogens, 2019).

target: recombinant CpLDH protein (Cryptosporidium parvum, UniProt Q9GT92, F198L/K295E/R251K); settings: not given

SMILES	MEAN CpLDH INHIBITION (%)
C[C@@H](N)C(=O)NC(CO)C(O)C(N)C=O.Cl (some centres unmarked) [NSC278619]	-43.32
Cc1cc(N(CCOS(C)(=O)=O)CCOS(C)(=O)=O)ccc1C=Nc1ccc(-c2csc(-c3ccccc3)n2)c(Cl)c1 [NSC281613]	-15.80
C=C1C(=O)OC2C1CC1OC2C(C)CCC/C(C)=C\CCC1(C)O (centres unmarked) [NSC282752]	-63.64
CCCCCCCCCCCCCCCCCCOP(=O)([O-])OCC[N+](C)(C)C [NSC282880]	-0.05
CN(CO)c1nc(N(C)CO)nc(N(C)CO)n1 [NSC283162]	-65.77
C=C(NC(=O)C(=C)NC(=O)c1csc(C2=N[C@@H]3c4csc(n4)[C@H]4NC(=O)c5csc(n5)[C@H]([C@](C)(O)[C@@H](C)O)NC(=O)[C@H]5CSC(=N5)/C(=C/C)NC(=O)[C@H]([C@@H](C)O)NC(=O)c5csc(n5)[C@]3(CC2)NC(=O)[C@H](C)NC(=O)C(=C)NC(=O)C(=C)NC(=O)[C@H](C(C)C)N[C@@H]2C=Cc3c([C@H](C)O)cc(nc3[C@H]2O)C(=O)O[C@@H]4C)n1)C(N)=O [NSC285116]	-2.26
COc1cc2c(cc1O)N=CC1CCC(O)N1C2=O (centres unmarked) [NSC285223]	-56.39
CCN(CC)CCNC(=O)c1nn(-c2ccc(Cl)cc2)c2c1CCc1cc(OC)ccc1-2 [NSC288010]	-45.22
C[C@]12CC[C@H](OC(=O)Cc3ccc(N(CCCl)CCCl)cc3)C[C@@H]1CC[C@@H]1[C@@H]2CC[C@]2(C)NC(=O)CC[C@@H]12 [NSC290205]	-205.36
O=C1C2=Nc3ccccc3C(O)N2c2ccccc21 (centres unmarked) [NSC292147]	-13.84
CO[C@@H]1C[C@@H](C[C@H]2CC[C@H](C)[C@H]([C@@H](C)C(=O)[O-])O2)O[C@]2(O[C@](C)([C@H]3CC[C@@](C)([C@@H]4O[C@@H]([C@H]5O[C@@](O)(CO)[C@H](C)C[C@@H]5C)C[C@@H]4C)O3)C[C@H]2C)[C@@H]1C.[Na+] [NSC292567]	-134.14
C=C1C(=O)O[C@H]2/C=C(/CO)[C@H](OC(C)=O)C[C@H](O)/C(C)=C\[C@H](OC(=O)[C@@H](C)CC)[C@H]12 [NSC292663]	-63.04
CCN(CC)CCOC(=O)Cc1cccc2c(=O)cc(-c3ccccc3)oc12 [NSC293015]	-3.81
O=C1Oc2ccccc2C(=O)/C1=C1\C=C(c2ccccc2)SS1 [NSC293927]	-15.46
CC(C)C1=C(O)C2=C(C(=O)C1=O)[C@@]1(C)CCCC(C)(C)[C@@H]1C[C@H]2O [NSC294577]	-16.31
O=C1Nc2ccc(Br)cc2/C1=C/C(=O)c1ccccc1 [NSC294961]	-25.63
CC1(O)C=CC(=O)C=C1 [NSC295156]	-1.00
O=C1c2ccccc2C(=O)c2c(NCCNCCO)ccc(O)c21 [NSC299187]	-23.00
COc1cc2oc(=O)cc(C)c2cc1[N+](=O)[O-] [NSC299879]	-32.05
COc1ccc(-c2csc(=[N+]3CCCCC3)s2)cc1 [NSC302358]	0.36
C=C1C(=O)C2=CC1CCC(=O)C1(C)CCC(OC(C)=O)C(C)(C)C1CC2O (centres unmarked) [NSC302979]	-1.17
CCC12C[N+]3([O-])CCc4c([nH]c5ccccc45)C(C(=O)OC)(c4cc5c(cc4OC)N(C)C4C(O)(C(=O)OC)C(OC(C)=O)C6(CC)C=CCN7CCC54C76)CC(C3)C1O2 (centres unmarked) [NSC304421]	-126.27
C=C1[C@@H](C)[C@H]2[C@H](Cc3ccccc3)NC(=O)C23[C@H](OC(C)=O)/C=C/[C@@](C)(O)C[C@@H](C)C/C=C/[C@H]3[C@@H]1O (some centres unmarked) [NSC305222]	-217.96
Nc1nc(N)c2cc(Sc3cccc(C(F)(F)F)c3)ccc2n1 [NSC305782]	-11.03
CC(C)(C)NCCC(O)c1cc(C(F)(F)F)nc2c(C(F)(F)F)cccc12.O=P(O)(O)O (centres unmarked) [NSC305819]	-15.30

same assay, conditions: 20 μM compound; 10 mM pyruvate, 1 mM NADH; values below 0 = augmenters

SMILES	MEAN CpLDH INHIBITION (%)
Oc1cccc2cccnc12 [NSC285166]	-48.97
